What was measured:
[1] = tested on: IL-1β; test: IL-1β/GAPDH mRNA expression in HaCaT keratinocytes with or without DNCB; type: cell-based, human; conditions: without DNCB; FIG. 4
Description: To verify that the composition of the present invention regulates the expression of genes associated with inflammation, the expression of IL-1β/GAPDH and Cox-2/GAPDH mRNA was quantified. When keratinocytes are exposed to IL-1β, they increase the levels of messenger RNA of other cytokines such as MIP-2, TNF-α, IL-10 and IL-1α. In this sense, the regulation of IL-1β is beneficial during inflammatory processes in the skin. The regulation of COX-2 is beneficial during inflammatory processes and wound regeneration.
Cells were worked between passages 3 to 7.
They were seeded in 6-well plates at a density of […] and incubated for 24 h at close to 20% confluency. After three days, 75% confluences were achieved.

[2] = tested on: HaCaT cells
Description: (§1) We worked with HaCaT cells, an immortalized human keratinocyte cell line, which were cultured in DMEM medium supplemented (1 g/L glucose, 4 mM L-alanyl-glutamine, 10% inactivated fetal bovine serum, 50 IU/penicillin, 50 μg/ml streptomycin) at 37° C. and 5% CO2. Cells were worked between passages 3 to 7.
(§2) They were treated with 2.5 and 5% sialylated GMP, alone or combined with 0.5 and 1% panthenol for 0, 1, 2, 24 and 48 h. To define the percentage of viability of the cells with the different treatments at each of the times tested, cells not treated with either sialidinated GMP or panthenol were used as a control condition.
(§3) Once the time was up, cell viability was determined by measuring mitochondrial metabolic activity by spectrophotometric techniques and using tetrazolium salts.

[3] = Viability of HaCaT human keratinocytes (mitochondrial metabolic activity, tetrazolium salts / MTT); conditions: HaCaT cells (immortalized keratinocytes)
Description: as §1, §2, §3

Row | Compound | expression level of IL-1β mRNA in relation to control cells [1] | cell viability [2] | cytotoxicity at 1 % [3] [%] | cytotoxicity at 2 h, 0.5 % [3] [%]
1 | glycomacropeptide [GMP] | decreased | greater than 50% | – | –
2 | CC(C)(CO)[C@@H](O)C(=O)NCCCO [panthenol, Panthenol] | – | – | 30 | 30
